Measured values as given in patent US20090263410A1, “USE OF TGF-B1 INHIBITOR PEPTIDES IN THE PREPARATION OF AN IMMUNE RESPONSE MODULATING AGENT” (Proyecto De Biomedicina Cima, S.L., priority 2005, published 2009).

Tested on: RAd-LacZ
Assay: Induction of anti-RAd LacZ antibodies (ELISA) after immunization with heat-inactivated adenovirus
Format: in vivo, BALB/c mice
Protocol: To analyse the immunomodulating effect of peptide p144 on the humoral response, female BALB/c mice (Harlan, Barcelona) were used, of between 6 and 8 weeks old. For the induction of specific antibodies, recombinant adenovirus (RAd-LacZ) inactivated by heat in a bath at 100° C. for 10 minutes was inoculated.
Three mice were immunized per group, by the intraperitoneal of a mixture of 200 μl which contained 1×10^8 pfu of the inactivated RAd-LacZ adenovirus, physiological serum (PS) or with […] of peptide p144, all emulsified in Freund's complete adjuvant (FCA) in a 1:1 volumetric ratio as indicated in table M4. Thirty days after the first immunization, the animals were reimmunized with the same mixture, but emulsified in Freund's incomplete adjuvant (FIA). Blood samples were taken from the retroorbital plexus on days 15 and 45 to quantify the anti-adenovirus antibodies generated in each animal.
In order to study the possible induction of antigen intolerance in the mice treated with p144, on day 50 after the I^st injection, the mice were inoculated intravenously with 4×10^8 pfu of active RAd-LacZ in 100 μl of RPMI-1640, including a new group of mice (cont iv), which had only received the intravenous dose of active LacZ adenovirus. Blood samples were taken after 7 days in all groups. Next, the animals were sacrificed to include liver samples in OCT® (Tissue-Tek®, SAKURA, the Netherlands) to the subsequent evaluation of LacZ expression in the liver.
The detection of antibodies in serum against RAd-LacZ was performed by ELISA assays using Maxisorp® flat-bottomed 96-well plates (Nunc, Roskilde, Denmark), based on the streptavidin-biotin system using 2,2′-azino-bis-3-ethylbenzthiazoline-6-sulphonic acid (ABTS) as developer. The plates were incubated throughout the night at 4° C. with 50 μl per well of a solution of 75 μl of RAd-LacZ 10^10 pfu/ml in 10 ml 0.1 M Na2CO3 (pH=10.5). […] 100 μl per well were added and after one hour the plate was read at 405 nm in a Multiskan Plus MKII reader (Labsystem, Helsinki, Finland).

## p144: peptide inhibiting TGF-β1 whose amino acid sequence corresponds to SEQ ID NO: 1 (TSLDASIIWAMMQN; Synthetic Construct from human TGB-Beta1 type III receptor.Domain730-743)
7 days after 4×10^8 pfu RAd LacZact i.v., no p144 at challenge, versus group immunized without p144
  antibody titer after intravenous infection with active RAd LacZ: approximately equalled
Day 15, RAd LacZinact in presence or absence of p144, ELISA
  anti-RAd LacZ antibody production after first immunization: no quantifiable effect
p144 50 μg in immunization mixture, versus inactivated RAd LacZ only
  antibody titer against RAd LacZ after second immunization: clearly lower
